Test results reported in patent US20030162834A1, “Natural physiologically active material effective on fish diseases and fish food containing the material” (priority 1998, published 2003).

What was measured:
Vibrio anguillarum = assay: Trial 11: turbidimetric antibacterial assay; type: cell-based; conditions: 500 ppm in BHI liquid culture medium, 13 hours, 23 degrees centigrade
Procedure: (§1) The turbidimetric analysis was employed. Fatty acids of C2, C4, C6-C10 were each dissolved in 2 ml of BHI liquid culture medium at 500 ppm concentration. A number 1×10^5 of typical bacteria (Vibrio anguillarum, Edwardsiella tarda and Enterococcus seriolicida) causing the fish bacterial diseases were inoculated in each adjusted culture medium, followed by cultivation for 13 hours at 23 degrees centigrade. After the cultivation, turbidity of the culture medium was measured at 600 nm to determine the amount of multiplied bacteria. The trial was conducted two times. Results are shown in FIG. 19 (Vibrio anguillarum), FIG. 20 (Edwardsiella tarda), and FIG. 21 (Enterococcus seriolicida).

Enterococcus seriolicida = assay: Trial 11: turbidimetric antibacterial assay; type: cell-based; conditions: 500 ppm in BHI liquid culture medium, 13 hours, 23 degrees centigrade
Procedure: as §1

Edwardsiella tarda = assay: Trial 11: turbidimetric antibacterial assay; type: cell-based; conditions: 500 ppm in BHI liquid culture medium, 13 hours, 23 degrees centigrade
Procedure: as §1

[1] = system: parasites (Heterobothrium okamotoi, Cryptocaryon irritans); assay: Trial 1: overall statements on efficacy of fatty acids against parasites; type: cell-based; conditions: Trial 1 summary; C12 at a low concentration, not the same condition
Procedure: Fatty acids having carbon number C2, C4 and C6-C10 were each dissolved in seawater at 1 mM concentration, and oncomiracidia of Heterobothrium okamotoi and larvae attaching to the gill were immersed in the seawater solutions. After 2 hours from the start of immersion, the efficacy of the fatty acids was investigated by counting the number of dead oncomiracidia and the number of larvae dropping down from the gill. More than 30 individuals of parasites were transferred to each group.
For Cryptocaryon irritans, fatty acids having carbon number C2, C4 and C6-C10 were each dissolved in seawater at 0.5 mM concentration, and theronts of Cryptocaryon irritans were immersed in the seawater solutions. After 1 hour from the start of immersion, the efficacy of the fatty acids was investigated by counting the number of dead theronts. More than 200 individuals of parasites were transferred to each group.
For any of the groups, the trial was made under condition of 20 degrees centigrade.

fish bacteria = assay: Trial 11: overall statement on C12 against fish bacteria; type: cell-based; conditions: low concentration, not the same condition as 500 ppm
Procedure: as §1, with “Fatty acids of C2, C4, C6-C10 were each dissolved in 2 ml of BHI liquid culture medium at 500 ppm concentration.” left out

Solubility = type: physicochemical
[2] = system: Vibrio sp. infection and gliding bacterium infection; assay: Trial 12: bleeding trial on spotted plaice with occurred bacterial disease; type: in vivo
From the text: Spotted plaice weighing approximately 60 g in average was employed in this trial. Each 270 pieces of spotted plaice were put in off-shore net pens of 4×4×2.5 m, and bled for 100 days. […] The number of dead fish and the fish situations were observed. The fish were fed twice per day, i.e., in the morning and evening. The water temperature during the trial period was in the range of 14-17 degrees centigrade.

Heterobothrium okamotoi = conditions: drug bath about one hour, about 800 ppm formalin; cited from earlier work
Cryptocaryon irritans [3] = assay: In vitro assay of glycerides of octanoic acid against Cryptocaryon irritans; type: cell-based
Cryptocaryon irritans [4] = assay: Trial 8: octanoic acid versus its monoglyceride and triglyceride, oral, red sea bream; type: in vivo; conditions: diet amount equal to 17.5 mM octanoic acid residues (2.5 g acid, 3.8 g monoglyceride, 2.7 g triglyceride per kg)
From the text: Fish tested: Red sea bream weighing approximately 15.8 g in average.
Trial groups: Four groups, i.e., an octanoic-acid added group in which fish were fed diets added with octanoic acid, a monoglyceride added group in which fish were fed diets added with monoglyceride of octanoic acid, a triglyceride added group in which fish were fed diets added with triglyceride of octanoic acid, and a control group in which fish were fed diets added with neither octanoic acid nor glycerides. The feeding rate was 3% of fish weight/day for each group.
Trial diets: The diets added with octanoic acid were prepared by spraying 2.5 g (17.5 mM with respect to the diet weight) of octanoic acid to 1 kg of commercially available pellets for red sea bream. […]. Specifically, the diets added with monoglyceride and triglyceride were prepared respectively by spraying 3.8 g of monoglyceride and 2.7 g of triglyceride to 1 kg of the commercially available pellets for red sea bream. The control group fish were fed the commercially available pellets for red sea bream.
Challenge trial: Each 10 pieces of fish from among a shoal of fish, in which no diseases such as Cryptocaryon irritans infection were found, were put in a 100-liter water tank, and were fed the respective trial diets. After 5 days, approximately 2000 individuals of theronts of Cryptocaryon irritans were put into each water tank to infect the fish while water flow was stopped for 1 hour. Then, bleeding was continued for 31 days while feeding the respective trial diets. During the trial period, the water temperature was 24+−1 degrees centigrade and the water was exchanged at 20 cycles/day.
Evaluation was made by sampling 5 pieces of fish from each group after 18 and 31 days from the start of the challenge, and comparing the number of the parasites attaching to the gill of each fish.

[5] = diets containing 0.5% decanoic acid fed from the 64-th day

With `CCCCCCCCC(=O)O` [C9, pelargonic acid] the “antibacterial activity (turbidity at 600 nm)” value (Vibrio anguillarum) was “showed an antibacterial activity”, the “antibacterial activity (turbidity at 600 nm)” value (Enterococcus seriolicida) was “showed an antibacterial activity” and the “antibacterial activity (turbidity at 600 nm)” value (Edwardsiella tarda) was “showed an antibacterial activity”.
In the case of `CCCCCCCCCCCC(=O)O` [C12, lauric acid], the efficacy against parasites [1] is reported as “a similar activity was found even at a low concentration”, the antibacterial activity (fish bacteria) is reported as “a similar activity was found even at a low concentration” and the solubility in seawater (Solubility; Trial 1 conditions (1 mM / 0.5 mM)) is reported as “so low in solubility that the trial could not be made under the same condition”. For the same molecule, the “solubility in BHI liquid culture medium” value (Solubility; Trial 11 conditions (500 ppm)) was “so low in solubility that the trial could not be made under the same condition”.
In the case of `CN(C)[C@@H]1C(O)=C(C(N)=O)C(=O)[C@@]2(O)C(O)=C3C(=O)c4c(O)cccc4[C@@](C)(O)[C@H]3[C@H](O)[C@@H]12` [OTC, exytetracycline, reference compound], the “number of dead fish after application” value ([2]; OTC in diet 6 days (22-th to 27-th day), 0.5 g of 10% OTC/kg of fish weight) is reported as “reduced” and the “complete remedy of the Vibrio sp. infection” value ([2]; OTC in diet 6 days, 0.5 g of 10% OTC/kg of fish weight) is reported as “not confirmed”.
With `CCCCCCCCCC(=O)O` [decanoic acid] the “antibacterial activity (turbidity at 600 nm)” value (Vibrio anguillarum) was “showed an antibacterial activity”, the “antibacterial activity (turbidity at 600 nm)” value (Enterococcus seriolicida) was “showed an antibacterial activity” and the “antibacterial activity (turbidity at 600 nm)” value (Edwardsiella tarda) was “showed an antibacterial activity”. The “dead fish after the 72-th day from the start of the trial” value [2, 5] was “no dead fish were found”, the “fish suffering abrasion and bleeding due to the infections” value [2, 5] was “not found” and the “number of dead fish after feeding” value [2, 5] was “apparently reduced”.
For `C=O` [formalin], the “effect on adult parasites” value (Heterobothrium okamotoi) is listed as “cannot destroy adult parasites at all” and the larvae destroyed (Heterobothrium okamotoi) is listed as no more than 80%.
For `CCCCCCCC(=O)OCC(O)CO` (stereo not drawn) [monoglyceride of octanoic acid], the “antibacterial activity against Cryptocaryon irritans” value (Cryptocaryon irritans [3]) was “an antibacterial activity though at a lower level than octanoic acid” and the “number of parasites attaching to the gill after 18 and 31 days, versus control” value (Cryptocaryon irritans [4]) was “apparently fewer”.
In the case of `CCCCCCCC(=O)OCC(COC(=O)CCCCCCC)OC(=O)CCCCCCC` [triglyceride of octanoic acid], the “antibacterial activity against Cryptocaryon irritans” value (Cryptocaryon irritans [3]) is reported as “no antibacterial activity” and the “number of parasites attaching to the gill after 18 and 31 days, versus control” value (Cryptocaryon irritans [4]) is reported as “apparently fewer”.
